“Also recorded” adds a separate entry of the source.
Legend:
MPS-IIIA mice [1] = conditions: mouse, in vivo, sc, 1 mg/kg/day
MPS-IIIA mice [2] = experiment: Western blot of LC3-II and p62 on brain lysates; assay type: in vivo, mouse
WT mice [3] = experiment: Lysosomal autophagic axis in WT mice; assay type: in vivo, mouse; conditions: WT mice upon treatment
From the text: Therefore, the present data support a model in which progressive amyloid build-up into lysosomes impairs autophagic flux. Mechanisms underlying such effect involve the negative impact of amyloids on autophagosome clearance through the prevention of lysosome encountering. […] This might be a consequence of the relief of the autophagy block and/or might be a result of a more specific effect of CLR01 on lysosomal-mediated signaling pathways inducing ALP, signaling that may be impaired by amyloid deposition in MPS-IIIA.

MPS-IIIA mice [4] = experiment: IHC anti-LAMP1 on brain sections; assay type: in vivo, mouse; conditions: daily s.c. injection for 4.5 months
Method: (§1) FIG. 8. […] Images from cerebral cortex shown. […] Three mice for each experiment group.
(§2) For paraffin embedding, mice brain were fixed in 4% paraformaldehyde (PFA) overnight at 4° C., then mice brain were dehydrated in a graded series of ethanol, cleared with xylene, and infiltrated with paraffin. Paraffin-embedded blocks were cut on a microtome in 6-μm sagittal sections. Immunohistochemistry experiments were […] performed using the Universal Vectastain Elite ABC HRP Kit (PK6200, Vector Laboratories). For all immunostainings were used sagittal sections, rinsed in PBS1×-Triton 0.1% and treated with 1% H2O2 for 30 min to quench endogenous peroxidase activity. At this point the sections were exposed at PBS or at Proteinase K digestion (50 μg/ml) for 2 minutes at 37° C. to detect protease resistant structures. After this point the sections were blocked for 1 hour in PBS1×-TritonX-100 0.1%-2% Horse Serum and then incubated with specific antibodies overnight at […], followed by incubation in biotinylated universal antibody (Vector Laboratories) for 90 minutes at room temperature and in ABC reagent (Vector Laboratories) for 45 minutes at room temperature. Sections were dehydrated and then mounted with Leica CV ULTRA (Leica micro systems). Visualization was performed using 3,3-diaminobenzidine tetrahydrochloride (DAB Vector Laboratories). […]

MPS-IIIA mice [5] = experiment: Anti-LC3 immunofluorescence on brain sections; assay type: in vivo, mouse
From the text: FIG. 9. Panels A and B, show anti-LC3 immunofluorescence on brain sagittal sections from the four experimental groups of mice. The number of LC3-positive dots (either total or large dots) were quantified in 15 different fields from the cortical regions for each group. Three mice for each experimental group. […] Panel C) Immunofluorescence analysis of colocalization in MPS-IIIA mice brain sagittal sections between LC3 (green) and Lamp1 (red), LC3 (green) and Neurofilament (red). […] Panel E) Immunohistochemistry analysis of anti-Ubiquitin K63 signal on brain sagittal sections derived from the four experimental groups of mice. Images from cerebral cortex shown. UbK63 immuno-reactivity quantified in 10 different fields from the cortical regions from each group.
(§3) Medial sagittal sections of frozen brain tissue were cut on a cryostat at either 12 or 40 μm of thickness, permeabilized (PBS, 0.2% Tween[…]20, and 10% fetal bovine serum), and stained with appropriate primary and secondary antibodies overnight at […] Sections were analyzed by Confocal microscope Zeiss LSM 710 using either 63× or 40× objectives. Stained sections were mounted with Vectashield (Vector Laboratories, CA, USA).
In healthy neurons autophagosomes are efficiently cleared upon axonal retrograde transport and lysosomal encountering and, therefore, are rarely found in neurites or cell bodies unless lysosomal-dependent autophagosome clearance is disrupted (Boland et al. (2008) J. Neurosci. 28: 6926-6937; Maday et al. (2012) J. Cell Biol. 196: 407-417; Lie & Nixon (2019) Neurobiol. Dis. 122: 94-105).

WT mice [6] = conditions: daily s.c. injection for 4.5 months
From the text: Panel C) IHC anti-Lamp-on brain sagittal sections derived from the four experimental groups of mice (WT saline-injected, WT CLR01-injected, MPS-IIIA-saline injected and MPS-IIIA CLR01-injected). Images from cerebral cortex shown. Lamp 1 immuno-reactivity quantified in 10 different fields from the cortical regions for each group. Three mice for each experimental group. ***p<0.001 vs WT; ###P<0.001 vs MPS-IIIA+saline, One-way ANOVA analysis with Bonferroni's multiple comparison test. Panels D and E) TEM analysis to quantify the number/size of lysosomes in the four experimental group of mice. Three mice for each experiment group. Representative TEM images were shown on the left panel. *, **, *** p<0.05, 0.01, 0.001 vs WT; ##, ###, P<0.01, 0.001 vs MPS-IIIA+saline, One-way ANOVA analysis with Bonferroni's multiple comparison test.

MPS-IIIA mice [7] = experiment: TEM analysis of number/size of lysosomes; assay type: in vivo, mouse
From the text: as §1

WT mice [8] = conditions: daily s.c. injection for 4.5 months; remark: listed apart in the source
MPS-IIIA mice [9] = experiment: Thioflavin S staining of amyloid deposits in brain sections; assay type: in vivo, mouse
From the text: CLR01 was produced in the facility of Professor Gal Bitan (Associate Professor of Neurology, Department of Neurology, University of California, UCLA). […] […] CLR01 dosage has been chosen on the basis of safety and pharmacological characterization of CLR01 in mice (Attar et al. (2014) BMC Parmacol. & Toxicol 15: 23).
After euthanization, mouse brain was collected from each experimental group and perfused with phosphate-buffered saline (PBS pH 7,4) to completely clear blood from tissue. The brains were divided in two equal parts: half of each was frozen in dry ice and used for biochemical analysis. The other halves were fixed in 4% (w/v) paraformaldehyde in PBS and embedded in Optimal cutting temperature compound (OCT compound) or paraffin.
For thioflavin S histochemistry were used cryosections (12 μm), then sections were incubated in 0.1% thioflavin S for 10 min. Slides were immersed to 80% ethanol solution for 5 min, and mounted using FLUORSAVE™ reagent. Positive staining was observed using a Leica DM5500 scan.
The inventors therefore tested whether CLR01 (FIG. 4, panel A), was effective in targeting and destroying amyloid aggregation in MPS IIIA mice. […] Both treatments ended at 7 months of age, when the neuropathological phenotype becomes evident in MPS-IIIA mice (Lau et al. (2008) Behav. Brain Res. 191: 130-136; Sambri et al. (2016) EMBO Mol. Med. e201606965; Sorrentino et al. (2013) EMBO Mol. Med. 5: 675-690; Wilkinson et al. (2012) PloS one, 7: e35787). The two different treatment regimens allowed evaluation of the potential therapeutic effect of CLR01 resulting from either prevention or disassembly of amyloid aggregation.
The potential therapeutic efficacy of CLR01 in MPS-IIIA was further tested by treating MPS-IIIA mice at 4.5 months of age (before massive amyloid aggregation takes place) with daily sub-cutaneous injection of CLR01 over a period of 4.5 months.

[10] = systemic administration; cited from earlier work
[11] = systemic administration, mice; cited from earlier work
[12] = test system: mouse models of synucleinopathies and Alzheimer's disease; conditions: cited from earlier work
MPS-IIIA mice [13] = experiment: GFAP and IBA1 staining of neuro-inflammation in brain; assay type: in vivo, mouse
WT mice [14] = experiment: Anti-LC3 immunofluorescence on brain sections of WT mice; assay type: in vivo, mouse; conditions: CLR01-treated WT mice
From the text: (§4) FIG. 9. Panels A and B, show anti-LC3 immunofluorescence on brain sagittal sections from the four experimental groups of mice. The number of LC3-positive dots (either total or large dots) were quantified in 15 different fields from the cortical regions for each group. Three mice for each experimental group. […] Panel C) Immunofluorescence analysis of colocalization in MPS-IIIA mice brain sagittal sections between LC3 (green) and Lamp1 (red), LC3 (green) and Neurofilament (red). […] Images from cerebral cortex shown.
as §3
(§5) To evaluate whether the normalization of the lysosomal compartment mediated by amyloid deposition inhibition was also associated to a functional recovery of lysosomes, the ALP was analyzed in MPS-IIIA mouse brain upon CLR01 treatment. […]

MPS-IIIA mice [15] = experiment: Contextual fear conditioning test; assay type: in vivo, mouse; conditions: daily s.c. injection for 4.5 months, 9 months of age
From the text: FIG. 7. […] Panel B) TEM analysis of synaptic vesicles number. […] Panel C) Contextual fear condition task.

MPS-IIIA mice [16] = conditions: MPS-IIIA mouse brain, daily s.c. injection for 4.5 months, 9 months of age
From the text: Panel B) TEM analysis of synaptic vesicles number. […] The arrows indicate the synaptic cleft. ***p<0.0001 vs WT+Saline; ###p<0.0001 vs MPS-IIIA+saline, One-way ANOVA analysis with Bonferroni's multiple comparison test.

MPS-IIIA mice [17] = experiment: IHC anti-UbK63 on brain sections; assay type: in vivo, mouse; conditions: CLR01-treated MPS-IIIA brain vs control MPS-IIIA brain
From the text: as §4
For paraffin embedding, mice brain were fixed in 4% paraformaldehyde (PFA) overnight at 4° C., then mice brain were dehydrated in a graded series of ethanol, cleared with xylene, and infiltrated with paraffin. Paraffin-embedded blocks were cut on a microtome in 6-μm sagittal sections. Immunohistochemistry experiments were […] performed using the Universal Vectastain Elite ABC HRP Kit (PK6200, Vector Laboratories). For all immunostainings were used sagittal sections, rinsed in PBS1×-Triton 0.1% and treated with 1% H2O2 for 30 min to quench endogenous peroxidase activity. […]
as §5

WT mice [18] = experiment: IHC anti-LAMP1 on brain sections of WT mice; assay type: in vivo, mouse; conditions: daily s.c. injection for 4.5 months
Method: as §1, §2

[19] = CLR01-treated MPS-IIIA brain vs WT
[20] = MPS-IIIA brain lysates, CLR01 vs saline
[21] = MPS-IIIA brain, daily s.c. injection for 4.5 months

O=P(O)(O)Oc1c2c(c(OP(=O)(O)O)c3c1C1CC3c3cc4c(cc31)C1CC4c3ccccc31)C1CC2c2cc3c(cc21)C1CC3c2ccccc21 [CLR01]
build-up of amyloid components (α-Synuclein, PrP, Aβ1-42, Tau), proteinase K-resistant (MPS-IIIA mice [1]): efficient inhibition of the build-up of several amyloid components | LC3-II levels compared to WT (MPS-IIIA mice [2]; [19]): remained significantly higher than WT | LC3-II protein level (Western blot, normalized to β-actin) (MPS-IIIA mice [2]; [20]): reduction; also recorded: damped down | p62 protein level (Western blot, normalized to β-actin) (MPS-IIIA mice [2]; [20]): reduction; also recorded: damped down | lysosomal autophagic axis (WT mice [3]): no significant change in lysosomal autophagic axis | LAMP1-positive immunostaining, cerebral cortex (MPS-IIIA mice [4]): markedly reduced LAMP1-positive immunostaining | number of LC3 dots (both large and normal sized) compared to WT brain (MPS-IIIA mice [5]; [19]): remained significantly higher compared to WT brain | autophagic flux / autophagy block (MPS-IIIA mice [5]; MPS-IIIA brain, conclusion from LC3 dots): autophagic flux was re-activated; also recorded: able to relief autophagy block | large LC3 dots (>0.8 μm^2) (MPS-IIIA mice [5]; MPS-IIIA brain, cortical regions, daily s.c. injection for 4.5 months): significantly reduced large LC3 dots | lysosome size/number (WT mice [6]): did not affect lysosome size/number | total number of lysosomes (MPS-IIIA mice [7]; CLR01-treated MPS-IIIA brain vs control MPS-IIIA mice): remained significantly higher than control MPS-IIIA mice | average lysosomal size (EM) (MPS-IIIA mice [7]; [21]): significant reduction in the average lysosomal size | number of abnormal-sized lysosomes (>800 nm) (MPS-IIIA mice [7]; [21]): decreased number of abnormal-sized lysosomes | inflammatory response by GFAP and Iba1 IHC (WT mice [8]): did not elicit inflammatory response | thioflavin-positive inclusions / amyloid deposition in brain (MPS-IIIA mice [9]; MPS-IIIA mice, daily s.c. injection for 4.5 months from 4.5 months of age, analysed at 9 months): reduction of amyloid deposition; also recorded: almost complete absence of thioflavin-positive inclusions | amyloid proteins by Thioflavin S staining (MPS-IIIA mice [9]; asymptomatic MPS-IIIA mice, 1 mg/kg/day s.c. osmotic pump, 2 months from 5 months of age, analysed at 7 months): complete disappearance of amyloid proteins | amyloid deposits by Thioflavin S staining in different brain regions (MPS-IIIA mice [9]; symptomatic MPS-IIIA mice, 1 mg/kg/day s.c. osmotic pump, 1 month from 6 months of age, analysed at 7 months): partial removal of amyloid deposits | brain targeting / blood-brain barrier crossing [10]: cross the blood-brain barrier | safety margin [11]: high safety margin | protection against protein aggregation and neurodegeneration [12]: very effective in protecting against protein aggregation and neurodegeneration | neuroinflammatory markers GFAP and IBA1, immunofluorescence (MPS-IIIA mice [13]; 2 months of treatment, at 7 months of age): strong reduction of inflammation | neuro-inflammation by GFAP and Iba1 IHC, cortex and striatum (MPS-IIIA mice [13]; daily s.c. injection for 4.5 months, 9 months of age): reduction in both inflammatory markers; also recorded: strongly reduced neuro-inflammation | LC3 staining (WT mice [14]): a significant change in LC3 staining was observed | memory deficit (freezing time, contextual fear conditioning) (MPS-IIIA mice [15]): rescue of memory deficits; also recorded: fully rescued | synaptic abnormalities (synaptic vesicles/synaptic cleft length ratio, TEM) (MPS-IIIA mice [16]): able to rescue synaptic abnormalities | UbK63 IHC signal, cerebral cortex (MPS-IIIA mice [17]): significant signal reduction | LAMP1 compartment volume (WT mice [18]): did not modify LAMP1 compartment volume

Source: patent publication US12076332B2, “Treatment of lysosomal storage disorders” (The Regents of the University of California, priority 2018, dated 2024)
